Patent publication US8507219B2, “Method of treating inflammation with statins” (MUSC Foundation for Research Development, priority 1997, dated 2013)
Where “and” joins values, the source holds several entries; their conditions need not be identical. Identical values can stand only once.

Assay: Plasma very-long-chain fatty acids (C26:0) in X-ALD patients on lovastatin
Format: in vivo, human
[1] = individual X-ALD patients, lovastatin 20 then 40 mg per day

## CC[C@H](C)C(=O)O[C@H]1C[C@@H](C)C=C2C=C[C@H](C)[C@H](CC[C@@H]3C[C@@H](O)CC(=O)O3)[C@H]21 [Lovastatin]
Five patients who continued the treatment
  plasma levels of very-long-chain fatty acids (C26:0), words: remained low and within the normal range for up to six months
Individual X-ALD patients (one line each), lovastatin 20 mg per day two weeks, then 40 mg per day, normal controls 0.24 ± 0.13
  Plasma Very-Long-Chain Fatty Acids AT 1 MO: 0.42 micrograms per milliliter and 0.37 micrograms per milliliter and 0.5 micrograms per milliliter and 0.43 micrograms per milliliter and 0.24 micrograms per milliliter and 0.3 micrograms per milliliter and 0.44 micrograms per milliliter
[1]
  Plasma Very-Long-Chain Fatty Acids AT 2 MO: 0.41 micrograms per milliliter (2×) and 0.5 micrograms per milliliter and 0.42 micrograms per milliliter (2×) and 0.21 micrograms per milliliter and 0.34 micrograms per milliliter
  Plasma Very-Long-Chain Fatty Acids AT 3 MO: 0.56 micrograms per milliliter and 0.3 micrograms per milliliter and 0.43 micrograms per milliliter and 0.21 micrograms per milliliter and 0.32 micrograms per milliliter and 0.36 micrograms per milliliter
  Plasma Very-Long-Chain Fatty Acids AT 4 MO: 0.35 micrograms per milliliter and 0.34 micrograms per milliliter (2×) and 0.42 micrograms per milliliter and 0.22 micrograms per milliliter and 0.37 micrograms per milliliter
  Plasma Very-Long-Chain Fatty Acids AT 5 MO: 0.17 micrograms per milliliter and 0.41 micrograms per milliliter (2×) and 0.26 micrograms per milliliter and 0.21 micrograms per milliliter
  Plasma Very-Long-Chain Fatty Acids AT 6 MO: 0.17 micrograms per milliliter (3×) and 0.16 micrograms per milliliter and 0.21 micrograms per milliliter
